SMILES strings stand for the structures. Where a name gives a salt, the structure may show the parent alone.

One may read the IC50 as the midpoint of a concentration-inhibition curve. Low values mean inhibition by little substance, high ones a need for much substance.

The target in the test is T1, human CCR5 (Homo sapiens, UniProt P51681).
T1 construct: expressed in transfected cells; host or cells: CHO-dhfr(-) cells stably transfected with plasmid pEF-BOS-bsr/hCCR5
Nature of the test: Inhibition test on the binding of RANTES to CCR5 (RANTES-induced transient increase of Ca ion). The following applies: human RANTES 10 nM; CCR5/CHO cell; Ca2+ transient increase. Type of test: cell-based. How it is done: (1) Isolation of Human CCR5 Gene
Human placental cDNA was prepared using Marathon cDNA amplification kit (Clontech). PCR primers hCCR5Xbal-F1:
Using the human placental cDNA as the template and using Ex Taq (Takara), PCR reaction (2 minutes at 95° C.→(30 seconds at 95° C., 45 seconds at 60° C., 1 minute at 72° C.)×35 times) was carried out. The thus amplified PCR product was subjected to a 1% agarose gel electrophoresis, purified using QIAquick Gel Extraction Kit (QUIAGEN) and then digested with a restriction enzyme XbaI. The digested fragments were ligated to an expression vector pEF-BOS-bsr using DNA Ligation Kit Ver. 2 (Takara) and transformed into Escherichia coli DH5a. […]
The thus established human CCR5 stably over-expressing CHO cell (CCR5/CHO cell) was suspended in Ham's F-12 medium containing FBS (10%) and dispensed in […] portions into a 96 well plate. […] Transient increase in the intracellular Ca^2+ concentration induced by the human RANTES was measured using a Ca^2+ detector for 96 well use (Hamamatsu Photonics), and inhibition ratio (%) of the test compound was calculated by the following calculation formula. Inhibition ratio=(Ec−Ea)/Ec×100 • Ec: measured value of Ca^2+ transient increase by RANTES • Ea: measured value of Ca^2+ transient increase by RANTES when a test compound was added.

T1 sequence (P51681 whole entry): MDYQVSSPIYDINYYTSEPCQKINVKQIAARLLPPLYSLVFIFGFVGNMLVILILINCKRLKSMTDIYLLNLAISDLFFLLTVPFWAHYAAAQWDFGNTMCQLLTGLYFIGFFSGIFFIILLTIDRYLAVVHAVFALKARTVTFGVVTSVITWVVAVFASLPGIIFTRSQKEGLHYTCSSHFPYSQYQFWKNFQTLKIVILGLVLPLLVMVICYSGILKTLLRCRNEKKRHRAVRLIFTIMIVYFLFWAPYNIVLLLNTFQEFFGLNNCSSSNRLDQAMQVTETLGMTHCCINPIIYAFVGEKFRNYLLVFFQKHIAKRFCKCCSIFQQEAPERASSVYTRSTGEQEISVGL

As for `CCCCN1C(=O)[C@@H]([C@H](O)C(CC)CC)NC(=O)C12CCN(Cc1ccc(Cc3ccc(C(=O)NC)cc3Cl)cc1)CC2` [Example 3(179), (3R)-1-butyl-2,5-dioxo-3-((1R)-1-hydroxy-2-ethylbutyl)-9-(4-(4-methylaminocarbonyl-2-chlorophenylmethyl)phenylmethyl)-1,4,9-triazaspiro[5.5]undecane hydrochloride], the IC50 worked out at 10 nM. This lies in the double-digit nanomolar range.

The values above are taken from patent US20050267114A1, “Triazaspiro[5.5]undecane derivatives and drugs comprising the same as the active ingredient” (priority 2002, published 2005).
